Like-named read-outs stand apart in the source and are kept apart here. Each block holds one molecule with its values, some of them ahead of it.
Assays:
LDH Type V = target: T1, LDH Type V (Oryctolagus cuniculus, UniProt P13491); test: LDH enzyme kinetic activity (NADH oxidation); type: biochemical, rabbit
T1 construct: were determined in pure isolated enzyme preparations; from tissue; host or cells: rabbit muscle
Text: FIG. 2—The toxicity of selected plant extracts and 2′,3,4′5,7-pentahydroxyflavone were previously determined on N-2A neuroblastoma cells prior to examination of their effects on kinetic activity of pyruvate kinase (PK) and LDH (data not shown). Briefly, the effects of experimental compounds on PK and LDH Type V, resembling that inherent to human cancer (Koukourakis et al., Br J Cancer. 2003; 89:877-85; Augoff and Grabowski. Pol Merkuriusz Lek 2004; 17:644-7; Nagai et al., Int J Cancer. 198815; 10-6; Evans et al., Biol. Chem. 1985; 260:306-14) were determined in pure isolated enzyme preparations. Briefly, PK Type III (from rabbit muscle [2.7.1.40]) was prepared in distilled water+HEPES (pH 7.5), at a concentration of 0.5 enzyme U/ml. Pyruvic acid was converted to lactate in the presence of LDH (from rabbit muscle, type V-S [EC 1.1.1.27]), at a concentration of 10 U/ml in the presence of adenosine, 2′,5′-diphospahte (ADP) (1.5 mM), β-NADH (1 mM)±magnesium sulfate (MgSO4) (5 mM). Experimental compounds were incubated with the enzyme solution for 10 minutes and addition of 1 mM phosphoenolpyruvate (PEP) prepared in distilled water started the reaction. Negative controls were established for all compounds tested. Enzyme activities were determined by spectrophotometric analysis using a UV spectrometer at 340 nm, by monitoring the oxidation of NADH. Experimental compounds that blocked the reaction through the PK/LDH cascade, were re-analyzed for LDH inhibition. LDH activity was achieved using an enzyme reaction mixture, minus PK or PEP, and starting the reaction with pyruvate (1 mM) prepared in buffered distilled water. Validation studies for LDH kinetic activity were established by monitoring the oxidation of NADH over time and concentration with dual detection quantifying lactic acid using a lactate oxidase based colorimetric enzymatic assay (Procedure No 735, Sigma Diagnostics, St. Louis, Mo.). FIG. 2A describes the effect of tumoricidal plant extracts and 2′,3,4′5,7-pentahydroxyflavone on inhibition of PK/LDH activity. The data represent reaction rate of NADH oxidation in the presence of enzyme/cofactor reagents+PEP (1 mM)±varying concentration of experimental compounds at 30 Min. […] Significance of difference from the controls were determined by a one-way ANOVA, followed by a Tukey mean comparison post hoc test, [*] group P<0.001,*P<0.001. FIG. 2B describes the effect of tumoricidal plant-extracts and 2′,3,4′5,7-pentahydroxyflavone on inhibition of LDH activity. The data represent reaction rate of NADH oxidation in the presence of enzyme/cofactor reagents+pyruvate (1 mM)±single level of experimental compound over time. […] Significance of difference from the control was determined by a two-way ANOVA, [*] P<0.001.

mitochondrial complex II = test: kinetic activity of mitochondrial complex II in cancer cells; type: biochemical
complex IV = test: mitochondrial respiration / O2 utilization through complex IV in cancer cells; type: cell-based
cancer cells = test: lethality to cancer cells; type: cell-based
[1] = test system: neuroblastoma and MCF-7 cell line; test: toxicity of 3-BP versus 2,3-DMBQ: growth inhibition of MCF-7 cells and cell viability of N2A cells; type: cell-based; settings: 24 hour incubation (FIGS. 3A,B)
Method: Briefly, cells were grown in Eagles MEM medium with […] and 10% calf serum and plated at 5′ 104 cells in 24 well plates. Appropriate positive (tamoxifen) and negative (no drug) controls were maintained simultaneously. After 24 hour incubation, cells were trypsined and collected by centrifugation, re-suspended in fresh media and cells were counted using trypan blue dye on a hemocytometer. […] FIG. 3B represents the evaluation of 3-BP versus 2,3-DMBQ on cell viability in N2A neuroblastoma cell line. Briefly, the experimental media consisted of DMEM (without phenol red), supplemented with 1.8% FBS (v/v), penicillin (100 U/ml)/streptomycin (0.1 mg/ml), 4 mM L-glutamine and 2 μM sodium pyruvate. Cells were plated at approximately 0.5×10^6 cells/ml in 96 well plates. A stock solution of each experimental compound was prepared in HBSS containing 5 mM HEPES, adjusted to a pH of 7.4. After 24 hours incubation at 37° C. and 5% CO2/atmosphere almar blue indicator dye was used to assess cell viability. Quantitative analysis of dye conversion was measured on a microplate fluorometer—Model 7620-version 5.02, Cambridge Technologies Inc. with settings fixed at [550/580], [excitation/emission], wavelengths. […]

[2] = test system: mitochondrial complex's I and IV; test: Vmax and Km of mitochondrial complexes I and IV; type: biochemical
N-2A neuroblastoma cells = test: in vitro screening of >700 nutraceuticals for tumoricidal properties (loss of cell viability, 24 H); type: cell-based; settings: 24 H incubation at 37° C.
Method: In brief, we conducted a large scale screening of over 700 commonly sold nutritional supplements for relative tumoricidal properties in vitro.
The data represent loss of cell viability after 24 H incubation at 37° C., and represent the Mean±S.E.M. . . . n=4

[3] = test system: MD-MB-231 human mammary carcinoma; test: efficacy against MD-MB-231 human mammary carcinoma xenograft; type: in vivo, Nu/Nu nude mice; settings: in comparison to a vehicle control; formulation i.p./s.c., taxol i.v.
Method: Briefly, 6 week old female Nu/Nu mice were kept in an autoclaved micro isolator cage, maintained under pathogen free conditions. The tumors were ascetically surgically removed and transferred to a sterile Petri dish containing RPMI-1640. The homogenate was centrifuged, pelleted, resuspended into a concentration of 10 million cells/ml and injected into the mammary fat pad. The tumors were established by day 9 after implant and treatment began. The formula was prepared in sterile saline, and administered by i.p. injection for 3 days and s.c for the next 3 days, stopping at day 15. Taxol—(24 mg/kg in 2% PEG 300, 8% cremophor CL an 80% sterile Saline) was administered i.v. intermittently up to day 19 (days 10,13,16 and 19). […] The data represents tumor volume estimation (mm3) and expressed as the mean±S.E.M., n=4, for treatment groups, with n=1 for the control. […] The data represents weight gain (g) and are expressed as the mean±S.E.M., n=4, for treatment groups, with n=1 for the control.

LDH inhibition (LDH enzyme kinetic profiles) (LDH Type V): inhibitor
SMILES: O=c1c(O)c(-c2ccc(O)cc2O)oc2cc(O)cc(O)c12 [2′,3,4′5,7-pentahydroxyflavone]

SMILES: COC1=C(OC)C(=O)C(C/C=C(\C)CC/C=C(\C)CC/C=C(\C)CC/C=C(\C)CC/C=C(\C)CC/C=C(\C)CC/C=C(\C)CC/C=C(\C)CC/C=C(\C)CCC=C(C)C)=C(C)C1=O [CoQ10, ubiquinone (50)]
Vmax / kinetic activity of mitochondrial complex II (mitochondrial complex II): increase
Vmax / kinetic activity of mitochondrial complex II (mitochondrial complex II; listed as ubiquinone (50)): augmenting
rate of mitochondrial respiration or O2 utilization through complex IV (complex IV): did not control
rate of mitochondrial respiration or O2 utilization through complex IV (complex IV; listed as ubiquinone (50)): no positive effect
lethality to cancer cells (cancer cells): not as lethal as expected

SMILES: COC1=C(OC)C(=O)C(C)=CC1=O [DMBQ]
toxicity relative to bromopyruvate [1]: > 50 ×
lethality to cancer cells (cancer cells): lethal

Vmax and Km of mitochondrial complex's I and IV [2]: augmenting the Vmax and reduction of Km
SMILES: Cc1cc2nc3c(=O)[nH]c(=O)nc-3n(C[C@H](O)[C@H](O)[C@H](O)COP(=O)(O)OP(=O)(O)OC[C@H]3O[C@@H](n4cnc5c(N)ncnc54)[C@H](O)[C@@H]3O)c2cc1C [FAD, flavin adenine dinucleotide]

Vmax and Km of mitochondrial complex's I and IV [2]: augmenting the Vmax and reduction of Km
SMILES: Cc1cc2nc3c(=O)[nH]c(=O)nc-3n(C[C@H](O)[C@H](O)[C@H](O)COP(=O)(O)O)c2cc1C [FMN, flavin mononucleotide]

SMILES: C[C@H]1[C@H](C)CC[C@]2(C)CC[C@]3(C)C(=CC[C@@H]4[C@@]5(C)CC[C@@H](O)[C@](C)(C(=O)O)[C@@H]5CC[C@]43C)[C@H]12 [boswellic acid]
tumoricidal potency (loss of cell viability) (N-2A neuroblastoma cells): most potent tumoricidal

LDH inhibition (LDH enzyme kinetic profiles) (LDH Type V): LDH inhibitors
SMILES: O=C(O)CC(O)(CC(=O)O)C(=O)O [citric acid]

SMILES: COc1ccc(-c2cc(=O)c3c(O)cc(O[C@@H]4O[C@H](CO[C@@H]5O[C@@H](C)[C@H](O)[C@@H](O)[C@H]5O)[C@@H](O)[C@H](O)[C@H]4O)cc3o2)cc1O [diosmin]
tumoricidal potency (loss of cell viability) (N-2A neuroblastoma cells): most potent tumoricidal

SMILES: O=C(O[C@@H]1Cc2c(O)cc(O)cc2O[C@@H]1c1cc(O)c(O)c(O)c1)c1cc(O)c(O)c(O)c1 [epigallocatechin gallate]
LDH inhibition (LDH enzyme kinetic profiles) (LDH Type V): LDH inhibitors

SMILES: CC(C)=CCC[C@]1(C)C=Cc2c(O)c3c(c(CC=C(C)C)c2O1)O[C@]12C(=C[C@@H]4C[C@H]1C(C)(C)O[C@@]2(C/C=C(/C)C(=O)O)C4=O)C3=O [gambogic acid]
tumoricidal potency (loss of cell viability) (N-2A neuroblastoma cells): most potent tumoricidal

SMILES: O=c1c(O)c(-c2ccc(O)c(O)c2)oc2cc(O)cc(O)c12 [quercetin]
LDH inhibition (LDH enzyme kinetic profiles) (LDH Type V): LDH inhibitors

SMILES: CC(=O)O[C@H]1C(=O)[C@@]2(C)[C@H]([C@H](OC(=O)c3ccccc3)[C@]3(O)C[C@H](OC(=O)[C@H](O)[C@@H](NC(=O)c4ccccc4)c4ccccc4)C(C)=C1C3(C)C)[C@]1(OC(C)=O)CO[C@@H]1C[C@@H]2O [taxol®]
tumor growth and growth latency [3]: reduced tumor growth and growth latency

Vmax and Km of mitochondrial complex's I and IV [2]: augmenting the Vmax and reduction of Km
SMILES: Cc1cc2nc3c(=O)[nH]c(=O)nc-3n(C[C@H](O)[C@H](O)[C@H](O)CO)c2cc1C [vitamin B2, 7,8-dimethyl-10-ribityl-isoalloxazine]
rate of mitochondrial respiration or O2 utilization through complex IV (complex IV): drastically potentiates

— US8802161B2, “Herbal composition and method of use for the treatment of cancer” (Florida Agricultural and Mechanical University, priority 2003, dated 2014)
